Data as given in US10562887B2, “Triazolones and tetrazolones as inhibitors of ROCK” (BRISTOL-MYERS SQUIBB COMPANY, priority 2016, dated 2020).
pIC50: −log10 of the molar value.

Target: ROCK2 (Homo sapiens (Human), UniProt O75116)
Assay: ROCK2 assay (peptide phosphorylation, LABCHIP 3000 Reader)
Assay type: biochemical
Settings: 5 μM ATP, 1.5 μM peptide substrate
Method in brief: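 Human ROCK2 reaction in 20 mM HEPES pH 7.5, 20 mM MgCl2, 0.015% Brij-35, 4 mM DTT, with 5 μM ATP and 1.5 μM FITC-labelled peptide, DMSO <2%. Stopped with EDTA; phosphorylated and unphosphorylated peptide separated by microfluidic mobility shift. IC50 from dose-response curve fit.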

Sequence of ROCK2 (O75116 whole entry, species assumed): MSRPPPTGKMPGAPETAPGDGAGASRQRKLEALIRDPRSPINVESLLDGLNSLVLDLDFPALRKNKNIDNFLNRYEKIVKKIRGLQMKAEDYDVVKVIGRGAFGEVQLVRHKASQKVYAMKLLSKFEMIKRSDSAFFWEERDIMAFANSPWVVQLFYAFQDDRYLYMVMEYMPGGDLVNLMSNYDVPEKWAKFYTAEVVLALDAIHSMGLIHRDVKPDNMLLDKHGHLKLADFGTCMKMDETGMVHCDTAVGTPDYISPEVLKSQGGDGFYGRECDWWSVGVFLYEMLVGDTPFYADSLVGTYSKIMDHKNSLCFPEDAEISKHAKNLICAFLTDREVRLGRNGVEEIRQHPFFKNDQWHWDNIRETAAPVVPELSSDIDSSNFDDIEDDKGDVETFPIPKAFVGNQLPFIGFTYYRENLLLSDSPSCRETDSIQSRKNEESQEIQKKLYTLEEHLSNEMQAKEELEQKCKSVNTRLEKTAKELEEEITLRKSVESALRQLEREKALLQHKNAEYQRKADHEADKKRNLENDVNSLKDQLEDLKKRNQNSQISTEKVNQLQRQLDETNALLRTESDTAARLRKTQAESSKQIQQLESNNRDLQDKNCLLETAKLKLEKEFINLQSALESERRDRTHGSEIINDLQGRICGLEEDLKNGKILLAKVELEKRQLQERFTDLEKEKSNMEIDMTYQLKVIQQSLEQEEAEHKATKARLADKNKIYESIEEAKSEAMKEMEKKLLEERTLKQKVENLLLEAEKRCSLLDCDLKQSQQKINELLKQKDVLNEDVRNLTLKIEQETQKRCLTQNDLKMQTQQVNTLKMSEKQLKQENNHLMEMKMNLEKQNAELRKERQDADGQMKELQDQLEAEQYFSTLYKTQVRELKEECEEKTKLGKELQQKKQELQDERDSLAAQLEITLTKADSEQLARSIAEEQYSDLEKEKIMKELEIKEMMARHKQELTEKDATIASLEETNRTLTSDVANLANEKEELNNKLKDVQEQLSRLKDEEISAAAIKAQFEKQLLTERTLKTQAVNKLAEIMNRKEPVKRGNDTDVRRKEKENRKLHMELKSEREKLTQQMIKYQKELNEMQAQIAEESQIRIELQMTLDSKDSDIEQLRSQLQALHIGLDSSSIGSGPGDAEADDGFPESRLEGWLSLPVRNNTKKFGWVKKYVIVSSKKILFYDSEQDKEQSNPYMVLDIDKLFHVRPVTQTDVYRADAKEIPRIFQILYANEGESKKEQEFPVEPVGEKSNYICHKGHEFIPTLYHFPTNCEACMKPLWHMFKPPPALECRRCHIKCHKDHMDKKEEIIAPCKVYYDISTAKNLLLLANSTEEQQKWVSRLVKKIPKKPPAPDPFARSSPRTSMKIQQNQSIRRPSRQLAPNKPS

First: COc1cc(Cn2c(C)nn(-c3ccc(-c4cn[nH]c4)cc3)c2=O)cc(OC)c1 [Example 120, 1-(4-(1H-pyrazol-4-yl)phenyl)-4-(3,5-dimethoxybenzyl)-3-methyl-1H-1,2,4-triazol-5(4H)-one]
Second: COc1cc(Cn2c(CO)nn(-c3ccc(-c4cn[nH]c4)cc3)c2=O)cc(OC)c1 [Example 127, 1-(4-(1H-pyrazol-4-yl)phenyl)-4-(3,5-dimethoxybenzyl)-3-(hydroxymethyl)-1H-1,2,4-triazol-5(4H)-one]
The pIC50 of the first is lower: 5.70 to 6.60 for the first, 6.60 to 7.30 for the second.

First: COc1cc(Cn2c(C)nn(-c3ccc(-c4cn[nH]c4)cc3)c2=O)ccc1F [Example 121, 1-(4-(1H-pyrazol-4-yl)phenyl)-4-(4-fluoro-3-methoxybenzyl)-3-methyl-1H-1,2,4-triazol-5(4H)-one]
Second: COc1ccc(Cn2c(C)nn(-c3ccc(-c4cn[nH]c4)cc3)c2=O)cc1F [Example 124, 1-(4-(1H-pyrazol-4-yl)phenyl)-4-(3-fluoro-4-methoxybenzyl)-3-methyl-1H-1,2,4-triazol-5(4H)-one]
The pIC50 of the first is higher: over 8.30 for the first, 5.70 to 6.60 for the second. The first is the more potent here.

First: COc1cccc(Cn2c(C)nn(-c3ccc(-c4cn[nH]c4)cc3)c2=O)c1F [Example 122, 1-(4-(1H-pyrazol-4-yl)phenyl)-4-(2-fluoro-3-methoxybenzyl)-3-methyl-1H-1,2,4-triazol-5(4H)-one]
Second: COc1ccc(F)cc1Cn1c(C)nn(-c2ccc(-c3cn[nH]c3)cc2)c1=O [Example 123, 1-(4-(1H-pyrazol-4-yl)phenyl)-4-(5-fluoro-2-methoxybenzyl)-3-methyl-1H-1,2,4-triazol-5(4H)-one]
The pIC50 of the first is lower: 5.70 to 6.60 for the first, 6.60 to 7.30 for the second.

Compared with `COc1cccc(Cn2c(CO)nn(-c3ccc(-c4cn[nH]c4)cc3)c2=O)c1` [Example 125, 1-(4-(1H-pyrazol-4-yl)phenyl)-3-(hydroxymethyl)-4-(3-methoxybenzyl)-1H-1,2,4-triazol-5(4H)-one], `O=c1n(-c2ccc(-c3cn[nH]c3)cc2)nc(CO)n1Cc1cccc(OC(F)F)c1` [Example 131, 1-(4-(1H-pyrazol-4-yl)phenyl)-4-(3-(difluoromethoxy)benzyl)-3-(hydroxymethyl)-1H-1,2,4-triazol-5(4H)-one] is lower in pIC50: over 8.30 for the first, 7.30 to 8.30 for the second.

`O=c1n(-c2ccc(-c3cn[nH]c3)cc2)nc(CO)n1Cc1ccccc1` [Example 126, 1-(4-(1H-pyrazol-4-yl)phenyl)-4-benzyl-3-(hydroxymethyl)-1H-1,2,4-triazol-5(4H)-one] and `O=c1n(-c2ccc(-c3cn[nH]c3)cc2)nc(CO)n1Cc1cccc(F)c1` [Example 128, 1-(4-(1H-pyrazol-4-yl)phenyl)-4-(3-fluorobenzyl)-3-(hydroxymethyl)-1H-1,2,4-triazol-5(4H)-one] fall in the same range of pIC50: 7.30 to 8.30 for the first, 7.30 to 8.30 for the second.

First: O=c1n(-c2ccc(-c3cn[nH]c3)cc2)nc(CO)n1Cc1cc(F)ccc1F [Example 129, 1-(4-(1H-pyrazol-4-yl)phenyl)-4-(2,5-difluorobenzyl)-3-(hydroxymethyl)-1H-1,2,4-triazol-5(4H)-one]
Second: COc1ccc(F)cc1Cn1c(CO)nn(-c2ccc(-c3cn[nH]c3)cc2)c1=O [Example 157, 1-(4-(1H-pyrazol-4-yl)phenyl)-4-(5-fluoro-2-methoxybenzyl)-3-(hydroxymethyl)-1H-1,2,4-triazol-5(4H)-one]
The pIC50 of the first is higher: 7.30 to 8.30 for the first, 6.60 to 7.30 for the second.

First: O=c1n(-c2ccc(-c3cn[nH]c3)cc2)nc(CO)n1Cc1cc(F)cc(F)c1 [Example 130, 1-(4-(1H-pyrazol-4-yl)phenyl)-4-(3,5-difluorobenzyl)-3-(hydroxymethyl)-1H-1,2,4-triazol-5(4H)-one]
Second: COc1cc(F)cc(Cn2c(CO)nn(-c3ccc(-c4cn[nH]c4)cc3)c2=O)c1 [Example 144, 1-(4-(1H-pyrazol-4-yl)phenyl)-4-(3-fluoro-5-methoxybenzyl)-3-(hydroxymethyl)-1H-1,2,4-triazol-5(4H)-one]
The pIC50 of the first is lower: 7.30 to 8.30 for the first, over 8.30 for the second.

First: N#Cc1cccc(Cn2c(CO)nn(-c3ccc(-c4cn[nH]c4)cc3)c2=O)c1 [Example 132, 3-((1-(4-(1H-pyrazol-4-yl)phenyl)-3-(hydroxymethyl)-5-oxo-1H-1,2,4-triazol-4(5H)-yl)methyl)benzonitrile]
Second: COc1cc(Cn2c(CO)nn(-c3ccc(-c4cn[nH]c4)cc3)c2=O)ccc1F [Example 158, 1-(4-(1H-pyrazol-4-yl)phenyl)-4-(4-fluoro-3-methoxybenzyl)-3-(hydroxymethyl)-1H-1,2,4-triazol-5(4H)-one]
The pIC50 of the first is lower: 6.60 to 7.30 for the first, 7.30 to 8.30 for the second.

`CC(C)(O)c1nn(-c2ccc(-c3cn[nH]c3)cc2)c(=O)n1Cc1ccccc1` [Example 133, 1-(4-(1H-pyrazol-4-yl)phenyl)-4-benzyl-3-(2-hydroxypropan-2-yl)-1H-1,2,4-triazol-5(4H)-one] and `CC(C)(O)c1nn(-c2ccc(-c3cn[nH]c3)cc2)c(=O)n1Cc1cccc(F)c1` [Example 135, 1-(4-(1H-pyrazol-4-yl)phenyl)-4-(3-fluorobenzyl)-3-(2-hydroxypropan-2-yl)-1H-1,2,4-triazol-5(4H)-one] fall in the same range of pIC50: 7.30 to 8.30 for the first, 7.30 to 8.30 for the second.

First: COc1cccc(Cn2c(C(C)(C)O)nn(-c3ccc(-c4cn[nH]c4)cc3)c2=O)c1 [Example 134, 1-(4-(1H-pyrazol-4-yl)phenyl)-3-(2-hydroxypropan-2-yl)-4-(3-methoxybenzyl)-1H-1,2,4-triazol-5(4H)-one]
Second: CC(C)(O)c1nn(-c2ccc(-c3cn[nH]c3)cc2)c(=O)n1Cc1cccc(OC(F)F)c1 [Example 139, 1-(4-(1H-pyrazol-4-yl)phenyl)-4-(3-(difluoromethoxy)benzyl)-3-(2-hydroxypropan-2-yl)-1H-1,2,4-triazol-5(4H)-one]
The pIC50 of the first is higher: over 8.30 for the first, 6.60 to 7.30 for the second. The first is the more potent here.

`CC(C)(O)c1nn(-c2ccc(-c3cn[nH]c3)cc2)c(=O)n1Cc1cc(F)ccc1F` [Example 136, 1-(4-(1H-pyrazol-4-yl)phenyl)-4-(2,5-difluorobenzyl)-3-(2-hydroxypropan-2-yl)-1H-1,2,4-triazol-5(4H)-one] and `CC(C)(O)c1nn(-c2ccc(-c3cn[nH]c3)cc2)c(=O)n1Cc1c(F)cccc1F` [Example 138, 1-(4-(1H-pyrazol-4-yl)phenyl)-4-(2,6-difluorobenzyl)-3-(2-hydroxypropan-2-yl)-1H-1,2,4-triazol-5(4H)-one] fall in the same range of pIC50: 6.60 to 7.30 for the first, 6.60 to 7.30 for the second.

`CC(C)(O)c1nn(-c2ccc(-c3cn[nH]c3)cc2)c(=O)n1Cc1cc(F)cc(F)c1` [Example 137, 1-(4-(1H-pyrazol-4-yl)phenyl)-4-(3,5-difluorobenzyl)-3-(2-hydroxypropan-2-yl)-1H-1,2,4-triazol-5(4H)-one] and `COc1cc(F)cc(Cn2c(C(C)(C)O)nn(-c3ccc(-c4cn[nH]c4)cc3)c2=O)c1` [Example 145, 1-(4-(1H-pyrazol-4-yl)phenyl)-4-(3-fluoro-5-methoxybenzyl)-3-(2-hydroxypropan-2-yl)-1H-1,2,4-triazol-5(4H)-one] fall in the same range of pIC50: 7.30 to 8.30 for the first, 7.30 to 8.30 for the second.

`COc1cccc(Cn2c(CN(C)C)nn(-c3ccc(-c4cn[nH]c4)cc3)c2=O)c1` [Example 142, 1-(4-(1H-pyrazol-4-yl)phenyl)-3-((dimethylamino)methyl)-4-(3-methoxybenzyl)-1H-1,2,4-triazol-5(4H)-one] and `COc1cc(F)cc(Cn2c(CN(C)C)nn(-c3ccc(-c4cn[nH]c4)cc3)c2=O)c1` [Example 148, 1-(4-(1H-pyrazol-4-yl)phenyl)-3-((dimethylamino)methyl)-4-(3-fluoro-5-methoxybenzyl)-1H-1,2,4-triazol-5(4H)-one] fall in the same range of pIC50: 7.30 to 8.30 for the first, 7.30 to 8.30 for the second.

`COc1cccc(Cn2c(CN3CCOCC3)nn(-c3ccc(-c4cn[nH]c4)cc3)c2=O)c1` [Example 143, 1-(4-(1H-pyrazol-4-yl)phenyl)-4-(3-methoxybenzyl)-3-(morpholinomethyl)-1H-1,2,4-triazol-5(4H)-one] and `COc1cccc(Cn2c(CN3CCCC3)nn(-c3ccc(-c4cn[nH]c4)cc3)c2=O)c1` [Example 146, 1-(4-(1H-pyrazol-4-yl)phenyl)-4-(3-methoxybenzyl)-3-(pyrrolidin-1-ylmethyl)-1H-1,2,4-triazol-5(4H)-one] fall in the same range of pIC50: 7.30 to 8.30 for the first, 7.30 to 8.30 for the second.

`COc1cc(F)cc(Cn2c(CN3CCOCC3)nn(-c3ccc(-c4cn[nH]c4)cc3)c2=O)c1` [Example 149, 1-(4-(1H-pyrazol-4-yl)phenyl)-4-(3-fluoro-5-methoxybenzyl)-3-(morpholinomethyl)-1H-1,2,4-triazol-5(4H)-one] and `COc1cc(F)cc(Cn2c(CN3CCCC3)nn(-c3ccc(-c4cn[nH]c4)cc3)c2=O)c1` [Example 150, 1-(4-(1H-pyrazol-4-yl)phenyl)-4-(3-fluoro-5-methoxybenzyl)-3-(pyrrolidin-1-ylmethyl)-1H-1,2,4-triazol-5(4H)-one] fall in the same range of pIC50: 7.30 to 8.30 for the first, 7.30 to 8.30 for the second.

`COc1cc(F)cc(Cn2c(CNCCO)nn(-c3ccc(-c4cn[nH]c4)cc3)c2=O)c1` [Example 151, 1-(4-(1H-pyrazol-4-yl)phenyl)-4-(3-fluoro-5-methoxybenzyl)-3-(((2-hydroxyethyl)amino)methyl)-1H-1,2,4-triazol-5(4H)-one] and `COc1cc(F)cc(Cn2c(CNC(C)CO)nn(-c3ccc(-c4cn[nH]c4)cc3)c2=O)c1` (centres unmarked) [Example 153, 1-(4-(1H-pyrazol-4-yl)phenyl)-4-(3-fluoro-5-methoxybenzyl)-3-(((1-hydroxypropan-2-yl)amino)methyl)-1H-1,2,4-triazol-5(4H)-one] fall in the same range of pIC50: 7.30 to 8.30 for the first, 7.30 to 8.30 for the second.

`COc1cc(F)cc(Cn2c(CN3CCNCC3)nn(-c3ccc(-c4cn[nH]c4)cc3)c2=O)c1` [Example 152, 1-(4-(1H-pyrazol-4-yl)phenyl)-4-(3-fluoro-5-methoxybenzyl)-3-(piperazin-1-ylmethyl)-1H-1,2,4-triazol-5(4H)-one] and `COc1cc(F)cc(Cn2c(CN3CCC(O)C3)nn(-c3ccc(-c4cn[nH]c4)cc3)c2=O)c1` (centres unmarked) [Example 155, 1-(4-(1H-pyrazol-4-yl)phenyl)-4-(3-fluoro-5-methoxybenzyl)-3-((3-hydroxypyrrolidin-1-yl)methyl)-1H-1,2,4-triazol-5(4H)-one] fall in the same range of pIC50: 7.30 to 8.30 for the first, 7.30 to 8.30 for the second.

For `COc1cccc(Cn2c(CN3CCC(O)C3)nn(-c3ccc(-c4cn[nH]c4)cc3)c2=O)c1` (centres unmarked) [Example 156, 1-(4-(1H-pyrazol-4-yl)phenyl)-3-((3-hydroxypyrrolidin-1-yl)methyl)-4-(3-methoxybenzyl)-1H-1,2,4-triazol-5(4H)-one], the pIC50 was 7.30 to 8.30.
